The results in this text go back to patent US20220119376A1, “TRICYCLIC COMPOUNDS ACTING ON CRBN PROTEINS” (CHIA TAI TIANQING PHARMACEUTICAL GROUP CO., LTD., priority 2018, published 2022).

Series [1] can be described thus: Pharmacokinetic evaluation of compounds in mice. Particulars: male, C57BL, mouse, in vivo. The source says: The test animals in the study were C57BL male mice, and the LC/MS/MS method was used to quantitatively determine the drug concentration in the plasma of the mice at different time points after intravenous injection or oral administration of the test compounds and the reference compound, thus evaluating the pharmacokinetic characteristics of the test drugs in the mice.
C57Balb/C (C57) mice (male, 20-30 g, 7-10 weeks old, Beijing Vital River or Shanghai SLAC).
Clear or suspended solution of the test compound was injected into C57 mice (overnight fasting) via the tail vein or administered intragastrically to C57 mice (overnight fasting). For intravenous injection, […] of blood was each collected by jugular vein puncture at 0 h (before injection) and 0.0833 h, 0.25 h, 0.5 h, 1 h, 2 h, 4 h, 6 h, 8 h and 24 h (after injection), and then placed in an anticoagulation tube added with EDTA-K2 (Jiangsu KANGJIAN Medical Apparatus Co., Ltd.), and the mixture was thoroughly vortex-mixed at 4° C. and centrifuged at 13000 rpm for 10 min; for intragastric administration, blood was collected by jugular vein puncture at 0 h (before administration) and 0.5 h, 1 h, 2 h, 4 h, 6 h, 8 h and 24 h (after administration), and then placed in an anticoagulation tube added with EDTA-K2 (Jiangsu KANGJIAN Medical Apparatus Co., Ltd.), and the mixture was thoroughly vortex-mixed and centrifuged at 13000 rpm for 10 min. The plasma concentration was measured by LC-MS/MS method, and the relevant pharmacokinetic parameters were calculated by WinNonlin™ Version 6.3 (Pharsight, Mountain View, Calif.) pharmacokinetic software using non-compartmental model linear logarithmic trapezoid method.

The nature of series [2]: Pharmacokinetic evaluation of compounds in rats. In kind it is in vivo, SD male rats. Particulars: for clearance / half-life / bioavailability: male, Sprague Dawley, rat, plasma; for bioavailability: oral, intragastric administration 10 mg/kg vs intravenous 2 mg/kg, read-out: Bioavailability F. The source says: The test animals in the study were SD male rats, and the LC/MS/MS method was used to quantitatively determine the drug concentration in the plasma of the rats at different time points after intravenous injection or oral administration of the test compounds and the reference compound, thus evaluating the pharmacokinetic characteristics of the test drugs in the rats.
Sprague Dawley (SD) rats (male, 200-300 g, 7-10 weeks old, Beijing Vital River or Shanghai SLAC).
Clear solution of the test compound was injected into SD rats (overnight fasting) via the tail vein or administered intragastrically to SD rats (overnight fasting). For intravenous injection, 200 μL of blood was each collected by jugular vein puncture at 0 h (before injection) and 0.0833 h, 0.25 h, 0.5 h, 1 h, 2 h, 4 h, 6 h, 8 h and 24 h (after injection), and then placed in an anticoagulation tube added with EDTA-K2 (Jiangsu KANGJIAN Medical Apparatus Co., Ltd.), and the mixture was thoroughly vortex-mixed at 4° C. and centrifuged at 13000 rpm for 10 min; for intragastric administration, blood was collected by jugular veinpuncture at 0 h (before administration) and 0.5 h, 1 h, 2 h, 4 h, 6 h, 8 h and 24 h (after administration), and then placed in an anticoagulation tube added with EDTA-K2 (Jiangsu KANGJIAN Medical Apparatus Co., Ltd.), and the mixture was thoroughly vortex-mixed and centrifuged at 13000 rpm for 10 min. The plasma concentration was measured by LC-MS/MS method, and the relevant pharmacokinetic parameters were calculated by WinNonlin™ Version 6.3 (Pharsight, Mountain View, Calif.) pharmacokinetic software using non-compartmental model linear logarithmic trapezoid method.

Series [3] relates to human myeloma MM.1S cells. Description: In vivo pharmacodynamic study in subcutaneous xenograft tumor CB-17 SCID model of human myeloma MM.1S cells. Also on record: species or system CB-17 SCID mice. Conditions: for Tumor volume (Day 0): Day 0 (baseline at grouping), 5 mg/kg oral twice daily; for Tumor volume (Day 24) / TGI (Day 24): Day 24, 5 mg/kg oral twice daily; for TGI (Day 24): tumor growth inhibition vs vehicle control. How it is done:
Cell culturing: human multiple myeloma cells MM.1S (ATCC® CRL-2974™) were cultured in vitro, in a semi-suspension manner, with an ATCC-formulated RPMI-1640 medium containing 10% fetal calf serum, 100 U/mL penicillin and 100 μg/mL streptomycin in an incubator at 37° C./5% CO2. Passages were performed twice a week.
At a required number, the cells were taken, counted and inoculated.
Animals: CB-17 SCID mice, female, 6-8 weeks old, weight of 18-20 g.
0.2 mL (5×10^6 cells) of MM.1S cells (along with matrigel in a volume ratio of 1:1) was subcutaneously inoculated on the right back of each mouse, and the mice were divided into groups for administration after the mean tumor volume was approximately 130 mm^3. Seven days constitute an administration cycle, twice daily with a 12 h interval, and the test compound was orally administered for a total of four cycles. Test compounds WX009 and WX023 were administered at a dose of 5 mg/kg, tumor volume was measured twice weekly with a two-dimensional caliper, and the volume was measured in cubic millimeters and calculated according to the following formula: V=0.5 a×b2 where a and b are the long and short diameters, respectively, of the tumor. Anti-tumor efficacy was determined by dividing the mean tumor increase volume of compound-treated animals by the mean tumor increase volume of untreated animals.

Series [4] deals with MM.1S. Description: Antiproliferative effect in multiple myeloma cell line MM.1S (CellTiter-Glo). In kind it is cell-based. Conditions: Homo sapiens, MM1.S, 120 h, MM.1S cells, 5 days of compound co-incubation. The protocol:
(§1) Periodical passaging was performed, and cells in logarithmic growth phase were taken for plating. • (1) Cells were stained with trypan blue and viable cells were counted. • (2) The cell concentration was adjusted to an appropriate level. [table] • (3) 90 μL of cell suspension was added to each well in the culture plate and cell-free medium was added to the blank control wells according to the table above. • (4) The culture plate was incubated overnight in an incubator at 37° C./5% CO2 and 100% relative humidity. […] It was prepared freshly prior to use. […] After the compound or DMSO was added, the mixture was pipetted and mixed well. […] 10 μL of DMSO-cell culture mixture was added to the vehicle control and blank control wells. […] The following procedure was performed according to the instructions of Promega CellTiter-Glo luminescence cell viability assay kit (Promega-G7573). […] The cell plate was wrapped with aluminum foil to keep out of light. (7) The plate was shaken on an orbital shaker for 2 min to induce cell lysis. (8) The culture plate was placed at room temperature for 10 min to stabilize the luminescence signals. (9) The luminescence signals were detected on 2104 EnVision plate reader. […] Inhibition rates of compounds at different concentrations were calculated in Excel, followed by plotting the inhibition curves and calculating relevant parameters including minimum inhibition rate (%), maximum inhibition rate (%) and IC50 using GraphPad Prism software.

Series [5] has as its system NCI-H929. Briefly: Antiproliferative effect in myeloma cell line NCI-H929 (CellTiter-Glo). Conditions: Homo sapiens, 120 h, NCI-H929 cells, 5 days of compound co-incubation. The class given is cell-based. How it is done: as §1
In general terms: In ATP-based viability assays light output follows the ATP content of the culture.

The mark [6] stands for this setting: intragastric administration 10 mg/kg.

Counter-ions that a name gives are not always drawn.

One may read the half-life as how long it takes for the measured level to halve. As a reminder, the clearance is a measure of how efficiently the substance is removed, as volume per time. The bioavailability is the share of a dose that reaches the circulation, judged against a reference dose that is usually intravenous. For orientation: IC50 means the concentration at which inhibition is half-maximal.

Take `O=C1CCC(c2noc3ccc4[nH]ccc4c23)C(=O)N1` (stereo not drawn) [WX009]: the “Area under plasma concentration-time curve (0-inf)” value (shortened to “Area”) in series [1] (iv, 2 mg/kg) amounted to 5.34 µM·h; in series [1] (po, 10 mg/kg), 12.29 µM·h; in series [2] (setting [6]), 26.34 µM·h; in series [2] (intravenous injection 2 mg/kg), 7.92 µM·h. Besides, the Peak concentration in series [1] (po, 10 mg/kg) amounted to 10.52 µM; in series [2] (setting [6]) it was 12.75 µM. Also, the Time to peak in series [1] (po, 10 mg/kg) is 0.25 h; in series [2] (setting [6]) it was 0.50 h. Also, the half-life was 0.89 h in series [1] (mice, intravenous injection 2 mg/kg, read-out: Half life (converted)) and 0.9 h in series [2] (intravenous injection 2 mg/kg). Moreover, the clearance in series [1] (mice, intravenous injection 2 mg/kg, read-out: Plasma clearance) came out at 23.2 mL/min/kg; in series [2] (intravenous injection 2 mg/kg), 15.9 mL/min/kg. In addition, the bioavailability in series [1] (mice, oral administration 10 mg/kg vs intravenous 2 mg/kg, read-out: Bioavailability F) was found to be 46.1%; in series [2], 66.5%. Moreover, in series [3], the “Tumor volume (Day 0)” value came out at 131 ± 12 mm^3. Further, the “Tumor volume (Day 24)” value in series [3] turned out to be 14 ± 5 mm^3. Also, the “TGI (Day 24)” value in series [3] turned out to be 105%.

As to `O=C1CCC(c2noc3ccc4cc(OCCN5CCCC5)ccc4c23)C(=O)N1` (stereo not drawn) [WX027], the IC50 in series [4] amounted to 3.4 nM.

With `O=C1CCC(c2noc3ccc4cc(OCCN5CCOCC5)ccc4c23)C(=O)N1` (stereo not drawn) [WX023], the IC50 in series [4] amounted to 6.4 nM. Further, in series [5], the IC50 was determined as 10.3 nM. The molecule further came in with a bioavailability in series [1] of 100%. In addition, in series [1] (iv, 2 mg/kg), the “Area” value stood at 6.87 µM·h, the clearance is 11.8 mL/min/kg and the half-life was 3.37 h. Further, in series [1] (po, 10 mg/kg), the “Area” value was 34.40 µM·h, the Peak concentration was 17.50 µM and the Time to peak is on record as 0.25 h. In series [2] (setting [6]), the “Area” value worked out at 19.69 µM·h, the Peak concentration is 3.08 µM and the Time to peak is reported as 0.75 h. Besides, in series [2] (intravenous injection 2 mg/kg), the “Area” value worked out at 3.76 µM·h, the clearance amounted to 21.7 mL/min/kg and the half-life was 1.24 h. In series [2], the bioavailability worked out at 73.7%. Further, in series [3], the “Tumor volume (Day 0)” value was determined as 130 ± 8 mm^3, the “Tumor volume (Day 24)” value was 15 ± 4 mm^3 and the “TGI (Day 24)” value is reported as 105%.

Turning to `O=C1CCC(c2noc3ccc4ccoc4c23)C(=O)N1` (stereo not drawn) [WX006], the IC50 in series [4] came to 2 nM.

As for `O=C1CCC(c2noc3ccc4cc(OCCNC5CCOCC5)ccc4c23)C(=O)N1` (stereo not drawn) [Hydrochloride of WX039], the IC50 in series [4] came out at 2.6 nM.

`O=C1CCC(c2noc3ccc4ccccc4c23)C(=O)N1` (stereo not drawn) [WX004]: the results for the concentration for half-maximal inhibition (IC50) in series [4] and in series [5] were 6.6 nM and 21.2 nM, respectively.

As to `O=C1CCC(c2noc3ccc4cc(CO)ccc4c23)C(=O)N1` (stereo not drawn) [WX061], in series [4], the IC50 worked out at 3.4 nM.

In the case of `O=C1CCC(c2noc3cc4occc4cc23)C(=O)N1` (stereo not drawn) [WX005], the IC50 in series [5] worked out at 19.1 nM.

On to `COc1ccc2c(ccc3onc(C4CCC(=O)NC4=O)c32)c1` (stereo not drawn) [WX013], for which the IC50 in series [4] stood at 4.5 nM.

Consider `CN(C)CCOc1ccc2c(ccc3onc(C4CCC(=O)NC4=O)c32)c1` (stereo not drawn) [WX015], for which the IC50 in series [4] stood at 3.8 nM.
